Measurements reported in patent publication US20080171097A1, “PRODUCT LIQUORICE ROOT AND OAK BARK IN COMBINATION WITH DEXAPANTHENOL” (priority 2007, published 2008).

System: herpes disease in the lip region (herpes blisters)
Assay: Topical application of the composition in the oral and/or pharyngeal cavity of voluntary test persons (herpes blisters, other inflammations)
Type: in vivo, human (voluntary test persons)
Settings: a test subject
From the text: This composition was applied in the oral and/or pharyngeal cavity of voluntary test persons. When there were signs that herpes blisters were about to occur or when herpes blisters had already occurred, the composition was applied several times daily to the affected skin sites using a cotton bud. In the case of other inflammations in the oral and/or pharyngeal cavity the solution was also either applied locally or a dilution of this solution was gurgled.

## Nc1nc2c(ncn2COCCO)c(=O)[nH]1 [Aciclovir]
  relapse / reoccurrence after treatment and healing of acute herpes blisters: relapses very often occurred again within the following 14 days
